The values that follow come from ChEMBL document CHEMBL4725259 (Bioorg Med Chem, 2020).

Active and inactive are the calls of the source. No cut-off for these calls is given here.

For assay [1], the target named is T1, Vasopressin V2 receptor (Homo sapiens, UniProt P30518). As to the kind of experiment: Antagonist activity at human AVPR2 at 20 uM by PathHunter beta-arrestin assay relative to control. The note with it: filed as antagonist.
Assay [2] has as its target T2, C-C chemokine receptor type 8 (Homo sapiens, UniProt P51685). Briefly: Antagonist activity at human CCR8 expressed in CHO-K1 cells at 20 uM by PathHunter beta-arrestin assay relative to control. The format is cell-based. The note with it: filed as antagonist.
Assay [3] concerns the target C-X-C chemokine receptor type 4 (Homo sapiens, UniProt P61073). Briefly: Antagonist activity at human CXCR4 expressed in mouse C2C12 cells at 20 uM by PathHunter beta-arrestin assay relative to control. It counts as cell-based. The note with it: filed as antagonist.
The target of assay [4] is T3, Follicle-stimulating hormone receptor (Homo sapiens) (UniProt P23945).
T3 sequence (whole entry): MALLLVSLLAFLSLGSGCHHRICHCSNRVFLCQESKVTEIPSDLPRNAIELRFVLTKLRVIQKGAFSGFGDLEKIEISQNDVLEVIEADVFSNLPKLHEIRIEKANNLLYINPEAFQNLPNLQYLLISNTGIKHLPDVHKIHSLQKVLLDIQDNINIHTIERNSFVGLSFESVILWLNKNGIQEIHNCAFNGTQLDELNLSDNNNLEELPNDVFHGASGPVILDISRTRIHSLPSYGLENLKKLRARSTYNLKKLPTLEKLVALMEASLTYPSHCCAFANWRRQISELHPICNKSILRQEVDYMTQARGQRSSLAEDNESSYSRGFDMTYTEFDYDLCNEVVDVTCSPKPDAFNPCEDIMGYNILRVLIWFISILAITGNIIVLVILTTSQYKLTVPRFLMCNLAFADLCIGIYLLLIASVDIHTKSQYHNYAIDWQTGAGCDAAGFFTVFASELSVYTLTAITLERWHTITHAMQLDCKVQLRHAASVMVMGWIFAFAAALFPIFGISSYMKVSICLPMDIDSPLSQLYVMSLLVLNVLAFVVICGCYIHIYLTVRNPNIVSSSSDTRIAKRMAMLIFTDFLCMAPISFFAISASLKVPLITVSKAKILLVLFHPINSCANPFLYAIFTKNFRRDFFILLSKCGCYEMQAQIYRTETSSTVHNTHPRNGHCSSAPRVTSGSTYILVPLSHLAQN
Briefly: Antagonist activity at human FSHR expressed in CHO-K1 cells at 20 uM by PathHunter beta-arrestin assay relative to control. The format is cell-based. The conditions noted are these: filed as antagonist.

The test system of the next assay is U2OS. As to the kind of experiment: Antagonist activity at NPSR1B in human U2OS cells at 20 uM by PathHunter beta-arrestin assay relative to control. It counts as cell-based. The note with it: filed as antagonist.
Assay [5] has as its target T4, Oxytocin receptor (Homo sapiens) (UniProt P30559).
T4 sequence (whole entry): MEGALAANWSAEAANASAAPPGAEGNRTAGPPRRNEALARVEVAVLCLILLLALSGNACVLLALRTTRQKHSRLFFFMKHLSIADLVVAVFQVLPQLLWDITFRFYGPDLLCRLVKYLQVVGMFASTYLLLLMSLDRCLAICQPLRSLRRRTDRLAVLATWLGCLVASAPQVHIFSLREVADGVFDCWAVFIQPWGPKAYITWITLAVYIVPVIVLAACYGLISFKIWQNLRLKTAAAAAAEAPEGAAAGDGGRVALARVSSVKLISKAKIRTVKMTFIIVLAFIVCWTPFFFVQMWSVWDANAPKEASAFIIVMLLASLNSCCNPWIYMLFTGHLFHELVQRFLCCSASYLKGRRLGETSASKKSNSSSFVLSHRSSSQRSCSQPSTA
Briefly: Antagonist activity at human OXTR expressed in CHO-K1 cells at 20 uM by PathHunter beta-arrestin assay relative to control. The format is cell-based. The conditions noted are these: filed as antagonist.

Assay [6] concerns the target T5, Prolactin-releasing peptide receptor (Homo sapiens) (UniProt P49683).
T5 sequence (whole entry): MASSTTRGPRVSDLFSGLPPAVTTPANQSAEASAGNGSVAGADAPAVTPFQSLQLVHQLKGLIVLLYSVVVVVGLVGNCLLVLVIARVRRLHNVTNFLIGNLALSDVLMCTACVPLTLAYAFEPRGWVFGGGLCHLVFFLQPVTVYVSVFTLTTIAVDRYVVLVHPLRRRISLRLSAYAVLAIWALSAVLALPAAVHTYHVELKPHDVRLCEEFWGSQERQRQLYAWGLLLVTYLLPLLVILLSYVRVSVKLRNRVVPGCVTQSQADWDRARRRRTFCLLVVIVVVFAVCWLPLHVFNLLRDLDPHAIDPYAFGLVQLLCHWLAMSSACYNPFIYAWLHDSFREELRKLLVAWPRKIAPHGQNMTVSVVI
Briefly: Antagonist activity at human PRLHR expressed in CHO-K1 cells at 20 uM by PathHunter beta-arrestin assay relative to control. It counts as cell-based. The note with it: filed as antagonist.

Assay [7] has as its target T1, Vasopressin V2 receptor. Briefly: Agonist activity at human AVPR2 at 20 uM by PathHunter beta-arrestin assay relative to control.
Assay [8] has as its target T2, C-C chemokine receptor type 8. As to the kind of experiment: Agonist activity at human CCR8 expressed in CHO-K1 cells at 20 uM by PathHunter beta-arrestin assay relative to control. The format is cell-based.
Assay [9] addresses T6, CX3C chemokine receptor 1 (Homo sapiens) (UniProt P49238).
T6 sequence (whole entry): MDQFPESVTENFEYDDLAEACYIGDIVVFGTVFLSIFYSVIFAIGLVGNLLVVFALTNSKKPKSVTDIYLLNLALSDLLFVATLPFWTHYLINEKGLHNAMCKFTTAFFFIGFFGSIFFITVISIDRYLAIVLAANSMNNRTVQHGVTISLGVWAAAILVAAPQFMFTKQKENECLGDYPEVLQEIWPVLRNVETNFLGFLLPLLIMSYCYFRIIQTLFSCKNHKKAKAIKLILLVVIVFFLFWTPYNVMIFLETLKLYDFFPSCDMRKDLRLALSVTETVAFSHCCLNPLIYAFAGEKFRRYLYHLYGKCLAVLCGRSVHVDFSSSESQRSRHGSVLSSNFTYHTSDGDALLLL
Briefly: Agonist activity at human CX3CR1 expressed in CHO-K1 cells at 20 uM by PathHunter beta-arrestin assay relative to control. It counts as cell-based.

Assay [10] addresses D(2) dopamine receptor (Homo sapiens) (UniProt P14416). Briefly: Agonist activity at human DRD2L expressed in CHO-K1 cells at 20 uM by PathHunter beta-arrestin assay relative to control. The format is cell-based.
Assay [11] deals with T3, Follicle-stimulating hormone receptor (Homo sapiens). As to the kind of experiment: Agonist activity at human FSHR expressed in CHO-K1 cells at 20 uM by PathHunter beta-arrestin assay relative to control. It counts as cell-based.
The target of assay [12] is T4, Oxytocin receptor (Homo sapiens). As to the kind of experiment: Agonist activity at human OXTR expressed in CHO-K1 cells at 20 uM by PathHunter beta-arrestin assay relative to control. It counts as cell-based.

T1 sequence (P30518 whole entry): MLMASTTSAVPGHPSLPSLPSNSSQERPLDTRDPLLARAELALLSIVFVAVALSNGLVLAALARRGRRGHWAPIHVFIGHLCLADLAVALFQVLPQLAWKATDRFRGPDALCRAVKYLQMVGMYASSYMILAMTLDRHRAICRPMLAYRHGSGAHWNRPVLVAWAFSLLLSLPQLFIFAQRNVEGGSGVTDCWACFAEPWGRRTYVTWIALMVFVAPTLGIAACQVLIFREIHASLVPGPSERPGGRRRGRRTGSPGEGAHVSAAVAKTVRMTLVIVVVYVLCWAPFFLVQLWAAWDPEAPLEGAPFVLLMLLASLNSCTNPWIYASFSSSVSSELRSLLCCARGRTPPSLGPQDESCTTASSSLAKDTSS
T2 sequence (P51685 whole entry): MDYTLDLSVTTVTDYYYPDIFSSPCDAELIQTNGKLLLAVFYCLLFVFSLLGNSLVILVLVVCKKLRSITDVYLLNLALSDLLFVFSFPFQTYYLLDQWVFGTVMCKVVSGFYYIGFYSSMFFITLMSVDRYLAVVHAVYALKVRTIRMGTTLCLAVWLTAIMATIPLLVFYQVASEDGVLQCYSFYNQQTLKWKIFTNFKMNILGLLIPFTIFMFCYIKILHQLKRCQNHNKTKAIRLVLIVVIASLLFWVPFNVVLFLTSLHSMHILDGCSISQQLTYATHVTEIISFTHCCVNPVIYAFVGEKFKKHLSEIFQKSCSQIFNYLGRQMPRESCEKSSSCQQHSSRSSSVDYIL
Chain of C-X-C chemokine receptor type 4 (P61073 whole entry): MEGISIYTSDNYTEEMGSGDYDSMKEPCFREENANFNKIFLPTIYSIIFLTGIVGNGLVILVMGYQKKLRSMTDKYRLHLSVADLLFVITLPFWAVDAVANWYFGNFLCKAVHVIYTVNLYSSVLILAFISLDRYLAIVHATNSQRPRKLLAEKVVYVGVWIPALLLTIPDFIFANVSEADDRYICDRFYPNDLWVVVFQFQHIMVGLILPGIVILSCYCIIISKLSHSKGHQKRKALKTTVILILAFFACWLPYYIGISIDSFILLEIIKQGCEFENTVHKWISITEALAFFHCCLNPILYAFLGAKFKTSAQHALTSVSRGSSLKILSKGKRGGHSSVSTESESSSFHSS
Chain of D(2) dopamine receptor (Homo sapiens) (P14416 whole entry): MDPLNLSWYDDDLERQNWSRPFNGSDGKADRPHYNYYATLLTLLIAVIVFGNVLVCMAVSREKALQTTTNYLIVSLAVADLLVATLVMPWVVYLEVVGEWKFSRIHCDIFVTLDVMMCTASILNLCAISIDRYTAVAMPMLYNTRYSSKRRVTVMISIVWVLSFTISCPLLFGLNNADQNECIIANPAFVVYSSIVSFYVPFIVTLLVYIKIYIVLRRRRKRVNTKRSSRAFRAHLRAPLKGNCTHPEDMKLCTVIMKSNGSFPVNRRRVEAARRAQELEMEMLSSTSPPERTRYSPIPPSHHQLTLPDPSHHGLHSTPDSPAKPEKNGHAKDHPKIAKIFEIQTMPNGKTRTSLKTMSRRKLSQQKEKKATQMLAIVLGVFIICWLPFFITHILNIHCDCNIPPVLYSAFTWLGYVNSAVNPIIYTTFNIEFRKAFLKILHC

Regarding `COC(=O)[C@@H]1[C@H]2C[C@@H]3N(CC[C@@]34C(=O)N(Cc3cccc(OC)c3)c3ccccc34)C[C@@H]2CC[C@@H]1OCc1cccc(OC)c1`, the inhibition is 83% against Vasopressin V2 receptor [1]; 88% in assay [2]; 39% in [3]; 56% in assay [4]; 48% in the assay with U2OS; 97% in assay [5]. Besides, the inhibition in [6] amounted to 63%. Also, the result (at Vasopressin V2 receptor [7]; in assay [8]; in assay [9]; in [10]; in assay [11]; in assay [12]) was inactive.

As to `COC(=O)[C@@H]1[C@H]2C[C@@H](c3[nH]c4ccccc4c3CCn3cc(-c4cccc(Cl)c4)nn3)N(C#N)C[C@@H]2CC[C@@H]1O`, the inhibition on Vasopressin V2 receptor [1] stood at 7%; in assay [2], 90%; in assay [3], 125%; in [4] it was 51%; with U2OS it was 62%; in assay [5], 9%. For the same compound, the inhibition in assay [6] was determined as 19%. Also, the outcome (on Vasopressin V2 receptor [7]; in [8]; in assay [9]; in assay [10]; in assay [11]; in assay [12]) was inactive.
